Data reported in PubChem BioAssay AID330 (DTP/NCI, 2004).
“And” between values parts separate entries of the source, which are not always exact repeats. Equal values may be shown once. Toxic doses and inconclusive results are not listed. How the source made its calls: active means survival T/C of 150% or more; inactive means T/C below 125% in these data.

System: P388 leukemia ip, CD2F1 mice, survival T/C
Assay: NCI In Vivo Anticancer Drug Screen. Data for tumor model P388 Leukemia (intraperitoneal) in CD2F1 (CDF1) mice
Conditions: endpoint: median survival time, higher = longer survival
Summary of the method: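 Mice carrying the transplanted tumor received test compound or vehicle. Survival was recorded in each group, and the value is the treated-group measurement divided by that of the vehicle-treated control group.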

[1] = dose: 25.0 mg/kg/injection, schedule: Q04DX003 (ip), vehicle: saline with Tween-80
[2] = dose: 50.0 mg/kg/injection, schedule: Q04DX003 (ip), vehicle: saline with Tween-80
[3] = dose: 60.0 mg/kg/injection, schedule: Q01DX005 (ip), vehicle: saline with Tween-80
[4] = dose: 120.0 mg/kg/injection, schedule: Q01DX005 (ip), vehicle: saline with Tween-80
[5] = dose: 50.0 mg/kg/injection, schedule: Q01DX005 (ip), vehicle: Klucel (hydroxypropylcellulose) (HPC)
[6] = dose: 100.0 mg/kg/injection, schedule: Q01DX005 (ip), vehicle: Klucel (hydroxypropylcellulose) (HPC)
[7] = dose: 200.0 mg/kg/injection, schedule: Q01DX005 (ip), vehicle: Klucel (hydroxypropylcellulose) (HPC)
[8] = dose: 50.0 mg/kg/injection, schedule: Q01DX005 (ip), vehicle: saline with Tween-80
[9] = dose: 100.0 mg/kg/injection, schedule: Q01DX005 (ip), vehicle: saline with Tween-80
[10] = dose: 200.0 mg/kg/injection, schedule: Q01DX005 (ip), vehicle: saline with Tween-80
[11] = dose: 25.0 mg/kg/injection, schedule: Q01DX009 (ip), vehicle: other
[12] = dose: 50.0 mg/kg/injection, schedule: Q01DX009 (ip), vehicle: other
[13] = dose: 240.0 mg/kg/injection, schedule: Q01DX005 (ip), vehicle: saline with Tween-80
[14] = dose: 100.0 mg/kg/injection, schedule: Q04DX003 (ip), vehicle: saline with Tween-80

Measured: T/C

Cc1ccc2cccc([N+](=O)[O-])c2n1
inactive: dose: 12.5 mg/kg/injection, schedule: Q04DX003 (ip), vehicle: saline with Tween-80 100 % of control | [1] 104 % of control | [2] 95 % of control

CN1C(c2ccccc2)CC(C)(O)CC1c1ccccc1 (stereo not drawn)
inactive: [3] 97 % of control | [4] 98 % of control

CCOC(=O)C1=C(C)NC(=O)NC1c1ccc([N+](=O)[O-])s1 (stereo not drawn)
inactive: [5] 87 % of control | [6] 97 % of control | [7] 91 % of control

CN(C)CC(OCCc1ccccc1)C(Cl)(Cl)Cl (stereo not drawn)
inactive: dose: 50.0 mg/kg/injection, schedule: Q01DX009 (ip), vehicle: Klucel (hydroxypropylcellulose) (HPC) 107 % of control | dose: 100.0 mg/kg/injection, schedule: Q01DX009 (ip), vehicle: Klucel (hydroxypropylcellulose) (HPC) 109 % of control | dose: 200.0 mg/kg/injection, schedule: Q01DX009 (ip), vehicle: Klucel (hydroxypropylcellulose) (HPC) 109 % of control

COc1cc2c(cc1OC)C(C)N(C)c1c-2c(OC(C)=O)cc2cc(OC)c(OC)cc12 (stereo not drawn)
inactive: [8] 97 % of control | [9] 100 % of control | [10] 92 % of control

O=C1C2CCC(N1CCc1ccccc1)n1c(=O)n(-c3ccccc3)c(=O)n12 (stereo not drawn)
inactive: dose: 100.0 mg/kg/injection, schedule: Q01DX001 (ip), vehicle: Klucel (hydroxypropylcellulose) (HPC) 99 % of control | dose: 200.0 mg/kg/injection, schedule: Q01DX001 (ip), vehicle: Klucel (hydroxypropylcellulose) (HPC) 104 % of control | dose: 400.0 mg/kg/injection, schedule: Q01DX001 (ip), vehicle: Klucel (hydroxypropylcellulose) (HPC) 97 % of control

NC(=O)N/N=C1/CCC(OCc2ccccc2)CC1CC(=O)O (stereo not drawn)
inactive: [8] 102 % of control | [9] 105 % of control | [10] 96 % of control

O=C1CS(=O)(=O)C(c2ccc(Cl)cc2)N1N1C(=O)CS(=O)(=O)C1c1ccc(Cl)cc1 (stereo not drawn)
inactive: dose: 25.0 mg/kg/injection, schedule: Q01DX005 (ip), vehicle: saline with Tween-80 98 % of control and 109 % of control | [8] 95 % of control and 96 % of control | [9] 87 % of control and 95 % of control

NNS(=O)(=O)c1cccc([N+](=O)[O-])c1
inactive: dose: 12.5 mg/kg/injection, schedule: Q01DX009 (ip), vehicle: other 107 % of control | [11] 98 % of control | [12] 103 % of control

Cc1ccc(S(=O)(=O)NCCC(=O)Nc2ccccc2)cc1
inactive: [11] 102 % of control | [12] 103 % of control | dose: 100.0 mg/kg/injection, schedule: Q01DX009 (ip), vehicle: other 103 % of control | dose: 200.0 mg/kg/injection, schedule: Q01DX009 (ip), vehicle: other 102 % of control | dose: 400.0 mg/kg/injection, schedule: Q01DX009 (ip), vehicle: other 96 % of control

Cc1c2c(cc3c4ccccc4n(C)c13)C(=O)NC2=O
inactive: [8] 91 % of control | [9] 90 % of control

O=c1c2ccccc2nc(-c2cccc([N+](=O)[O-])c2)n1O
inactive: [3] 89 % of control | [4] 100 % of control | [13] 91 % of control

Cc1ccc(NC(=O)N(C)C)cc1NC(=O)N(C)C
inactive: [3] 100 % of control | [4] 100 % of control | [13] 101 % of control

CCOC(=O)c1ccc(NC(=O)Nc2nn[nH]n2)cc1
inactive: dose: 25.0 mg/kg/injection, schedule: Q01DX009 (ip), vehicle: distilled water + Tween-80 105 % of control | dose: 50.0 mg/kg/injection, schedule: Q01DX009 (ip), vehicle: distilled water + Tween-80 115 % of control | dose: 100.0 mg/kg/injection, schedule: Q01DX009 (ip), vehicle: distilled water + Tween-80 108 % of control | dose: 200.0 mg/kg/injection, schedule: Q01DX009 (ip), vehicle: distilled water + Tween-80 100 % of control | dose: 400.0 mg/kg/injection, schedule: Q01DX009 (ip), vehicle: distilled water + Tween-80 108 % of control

CCC(C)(C)c1cccc(C(=O)O)c1O
inactive: [1] 100 % of control | [2] 118 % of control | [14] 106 % of control and 112 % of control

O=c1c2ccccc2nc2n1CCC/C2=C\c1ccc(Cl)cc1
inactive: dose: 92.5 mg/kg/injection, schedule: Q04DX002 (ip), vehicle: Klucel (hydroxypropylcellulose) (HPC) 97 % of control | dose: 185.0 mg/kg/injection, schedule: Q04DX002 (ip), vehicle: Klucel (hydroxypropylcellulose) (HPC) 105 % of control | dose: 370.0 mg/kg/injection, schedule: Q04DX002 (ip), vehicle: Klucel (hydroxypropylcellulose) (HPC) 97 % of control

COc1ccc2nc(C)cc(N=[N+]=[N-])c2c1
inactive: [3] 100 % of control | [4] 100 % of control | [13] 91 % of control

CC1CN(C2CCCCC2)CO1 (stereo not drawn)
inactive: dose: 12.5 mg/kg/injection, schedule: Q01DX005 (ip), vehicle: saline 104 % of control and 105 % of control | dose: 25.0 mg/kg/injection, schedule: Q01DX005 (ip), vehicle: saline 104 % of control and 112 % of control | dose: 50.0 mg/kg/injection, schedule: Q01DX005 (ip), vehicle: saline 117 % of control and 118 % of control and 124 % of control | dose: 100.0 mg/kg/injection, schedule: Q01DX005 (ip), vehicle: saline 121 % of control and 124 % of control | dose: 200.0 mg/kg/injection, schedule: Q01DX005 (ip), vehicle: saline 109 % of control

COc1ccc(C2C3=C(CC(C)(C)CC3=O)Oc3cc4c(cc32)OCO4)c(OC)c1 (stereo not drawn)
inactive: [3] 99 % of control | [4] 93 % of control | [13] 92 % of control

COc1cccc2c1C(=O)c1c(O)c3c(c(O)c1C2=O)CC(O)(C(C)=O)CC3OC1CC(NC(=O)C(N)CCCCN)C(O)C(C)O1 (stereo not drawn)
inactive: dose: 2.5 mg/kg/injection, schedule: Q04DX003 (ip), vehicle: water 101 % of control | dose: 5.0 mg/kg/injection, schedule: Q04DX003 (ip), vehicle: water 101 % of control and 103 % of control | dose: 10.0 mg/kg/injection, schedule: Q04DX003 (ip), vehicle: distilled water + Tween-80 95 % of control | dose: 10.0 mg/kg/injection, schedule: Q04DX003 (ip), vehicle: water 101 % of control and 109 % of control | dose: 20.0 mg/kg/injection, schedule: Q04DX003 (ip), vehicle: distilled water + Tween-80 96 % of control | dose: 20.0 mg/kg/injection, schedule: Q04DX003 (ip), vehicle: water 109 % of control and 118 % of control | dose: 40.0 mg/kg/injection, schedule: Q04DX003 (ip), vehicle: distilled water + Tween-80 105 % of control | dose: 40.0 mg/kg/injection, schedule: Q04DX003 (ip), vehicle: water 106 % of control and 122 % of control | dose: 80.0 mg/kg/injection, schedule: Q04DX003 (ip), vehicle: distilled water + Tween-80 112 % of control | dose: 80.0 mg/kg/injection, schedule: Q04DX003 (ip), vehicle: water 118 % of control

COC(=O)N1c2ccccc2C=C(NC(C)=O)C1C#N (stereo not drawn)
inactive: [14] 90 % of control | dose: 200.0 mg/kg/injection, schedule: Q04DX003 (ip), vehicle: saline with Tween-80 100 % of control | dose: 400.0 mg/kg/injection, schedule: Q04DX003 (ip), vehicle: saline with Tween-80 100 % of control

CC1(C)C(C)(C)C1(Br)Br
inactive: dose: 12.5 mg/kg/injection, schedule: Q01DX009 (ip), vehicle: saline + alcohol 102 % of control | dose: 25.0 mg/kg/injection, schedule: Q01DX009 (ip), vehicle: saline + alcohol 111 % of control | dose: 50.0 mg/kg/injection, schedule: Q01DX009 (ip), vehicle: saline + alcohol 103 % of control | dose: 100.0 mg/kg/injection, schedule: Q01DX009 (ip), vehicle: saline + alcohol 100 % of control and 95 % of control | dose: 200.0 mg/kg/injection, schedule: Q01DX009 (ip), vehicle: saline + alcohol 89 % of control

[N-]=[N+]=NCCOCn1ccc(=O)[nH]c1=O
inactive: dose: 60.0 mg/kg/injection, schedule: Q01DX005 (ip), vehicle: saline 103 % of control | dose: 120.0 mg/kg/injection, schedule: Q01DX005 (ip), vehicle: saline 108 % of control | dose: 240.0 mg/kg/injection, schedule: Q01DX005 (ip), vehicle: saline 100 % of control

CCC(C)C(NC(=O)CCl)C(=O)O (stereo not drawn)
inactive: dose: 50.0 mg/kg/injection, schedule: Q01DX009 (ip), vehicle: saline 99 % of control | dose: 100.0 mg/kg/injection, schedule: Q01DX009 (ip), vehicle: saline 96 % of control | dose: 200.0 mg/kg/injection, schedule: Q01DX009 (ip), vehicle: saline 101 % of control

CC(C)CC(NC1=CC(=O)N(c2ccccc2)C1c1ccccc1)c1nc2ccccc2[nH]1 (stereo not drawn)
inactive: [5] 99 % of control | [6] 95 % of control | [7] 95 % of control
